The values that follow come from patent publication US20240109853A1 (Shanghai Yao Yuan Biotechnology Co., Ltd., priority 2020, published 2024).

Usually IC50 stands for the point on the concentration scale where inhibition reaches its midpoint.

One assay concerns the target ALPK1 (Homo sapiens (Human), UniProt Q96QP1). The assay can be described thus: ALPK1 in vitro kinase assay (HTRF of TIFA phosphorylation). Format: biochemical. (In TR-FRET formats the signal depends on donor and acceptor labels being close together.)
Assay [1] has as its system ALPK1-dependent NFκB reporter gene activation in HEK293 cells stably expressing an NF-kB reporter (G9 cells). The experiment in a line: NFκB gene reporter alkaline phosphatase assay. Format: cell-based. The note with it: Homo sapiens, HEK293; read-out: NFkB assay IC50. Put shortly: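 HEK293 G9 cells carrying an NF-κB-driven alkaline phosphatase reporter, pretreated 30 min with serially diluted compound, then stimulated with D-glycero-D-manno-6-fluoro-heptose-1β-S-ADP. Reporter activity read with chromogenic pNPP substrate; IC50 from four-parameter logistic fit.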

ALPK1, sequence (Q96QP1 whole entry): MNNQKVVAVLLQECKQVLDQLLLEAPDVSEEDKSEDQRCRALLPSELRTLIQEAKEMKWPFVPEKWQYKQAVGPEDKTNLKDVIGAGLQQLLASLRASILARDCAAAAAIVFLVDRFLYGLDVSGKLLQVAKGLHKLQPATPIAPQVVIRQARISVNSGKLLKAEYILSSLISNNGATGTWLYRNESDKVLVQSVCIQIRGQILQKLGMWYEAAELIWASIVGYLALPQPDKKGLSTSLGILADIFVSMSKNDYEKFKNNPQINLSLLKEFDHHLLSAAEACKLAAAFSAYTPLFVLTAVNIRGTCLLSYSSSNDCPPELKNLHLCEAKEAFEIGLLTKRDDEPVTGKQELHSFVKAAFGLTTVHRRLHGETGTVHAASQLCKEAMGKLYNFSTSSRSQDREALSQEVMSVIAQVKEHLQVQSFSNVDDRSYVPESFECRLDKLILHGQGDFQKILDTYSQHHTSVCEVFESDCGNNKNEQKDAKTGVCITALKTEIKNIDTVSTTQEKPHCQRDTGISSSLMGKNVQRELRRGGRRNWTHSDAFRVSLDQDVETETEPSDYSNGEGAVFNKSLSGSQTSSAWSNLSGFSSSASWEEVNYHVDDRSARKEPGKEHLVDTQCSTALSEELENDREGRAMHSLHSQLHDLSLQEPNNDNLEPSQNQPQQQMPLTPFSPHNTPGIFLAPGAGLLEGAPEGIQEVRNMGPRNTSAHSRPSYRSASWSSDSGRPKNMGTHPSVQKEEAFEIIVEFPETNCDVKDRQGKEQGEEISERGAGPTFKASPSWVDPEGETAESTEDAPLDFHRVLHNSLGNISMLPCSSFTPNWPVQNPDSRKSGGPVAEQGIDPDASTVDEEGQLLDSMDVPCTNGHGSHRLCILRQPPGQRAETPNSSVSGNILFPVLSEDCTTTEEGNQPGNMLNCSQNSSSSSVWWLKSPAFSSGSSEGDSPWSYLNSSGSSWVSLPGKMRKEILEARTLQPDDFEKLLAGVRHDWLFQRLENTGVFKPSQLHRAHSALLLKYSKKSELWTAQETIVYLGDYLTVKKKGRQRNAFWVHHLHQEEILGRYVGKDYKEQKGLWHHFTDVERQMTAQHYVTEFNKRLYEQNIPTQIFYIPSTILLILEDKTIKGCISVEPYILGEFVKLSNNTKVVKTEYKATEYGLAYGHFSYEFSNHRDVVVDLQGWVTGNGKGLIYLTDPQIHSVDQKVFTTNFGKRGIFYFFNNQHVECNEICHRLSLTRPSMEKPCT

For `COc1ccc(C(C)(C)c2csc(NC(=O)NCc3cnc(N4CCNCC4)nc3C)n2)cc1` [Example A223, 1-(4-(2-(4-methoxyphenyl)propan-2-yl)thiazol-2-yl)-3-((4-methyl-2-(piperazin-1-yl)pyrimidin-5-yl)methyl)urea], the IC50 amounted to 49 nM at ALPK1 and 760 nM in assay [1].

Turning to `C#C[C@@](C)(c1ccc(OC)cc1)c1csc(NC(=O)NCCO)n1` [Example A170, (S)-1-(2-hydroxyethyl)-3-(4-(2-(4-methoxyphenyl)but-3-yn-2-yl)thiazol-2-yl)urea], the values for the IC50 (on ALPK1; in assay [1]) were 8 nM and 460 nM, respectively.

Consider `COc1ccc(C(C)(C)c2csc(NC(=O)NCCCS(C)(=O)=O)n2)cc1` [Example A136, 1-(4-(2-(4-methoxyphenyl)propan-2-yl)thiazol-2-yl)-3-(3-(methylsulfonyl)propyl) urea], for which the half-inhibitory concentration (IC50) on ALPK1 was 209 nM; in assay [1], 640 nM.

With `C#C[C@](C)(c1ccc(Cl)cc1)c1csc(NC(=O)N2CC(CO)C2)n1` [Example A257, (R)-N-(4-(2-(4-chlorophenyl)but-3-yn-2-yl)thiazol-2-yl)-3-(hydroxymethyl)azetidine-1-carboxamide], the values for the IC50 (against ALPK1; in assay [1]) were 1550 nM and 2010 nM, respectively.

Turning to `CCNC(=O)Nc1nc(C(C)(C)c2ccc(OC)cc2)cs1` [Example A242, 1-ethyl-3-(4-(2-(4-methoxyphenyl)propan-2-yl)thiazol-2-yl)urea], the IC50 against ALPK1 is 42 nM; in assay [1], 980 nM.

As to `C#CC(C)(c1ccc(Br)cc1)c1csc(NC(=O)NCCCO)n1` (stereo not shown) [Example A154, 1-(4-(2-(4-bromophenyl)but-3-yn-2-yl)thiazol-2-yl)-3-(3-hydroxypropyl)urea], the values for the IC50 (against ALPK1; in assay [1]) were 21 nM and 380 nM, respectively.

As for `COc1ccc(C(C)(C)c2csc(NC(=O)NCc3cc(F)c(N4CC5CC(C4)N5)c(F)c3)n2)cc1` [Example A232], the IC50 against ALPK1 is 88 nM; in assay [1], 590 nM.

Regarding `C#C[C@@](C)(c1ccc(Br)cc1)c1csc(NC(=O)NCC(C)(C)O)n1` (stereo in doubt) [Example A306, 1-[4-[1-(4-bromophenyl)-1-methyl-prop-2-ynyl]thiazol-2-yl]-3-(2-hydroxy-2-methyl-propyl)urea], the IC50 on ALPK1 turned out to be 56 nM; in assay [1], 830 nM.

As to `CNC(=O)c1cc(CNC(=O)Nc2nc(C(C)(C)c3ccc(OC)cc3)cs2)ccc1N1CCNCC1` [Example A065, 5-((3-(4-(2-(4-methoxyphenyl)propan-2-yl)thiazol-2-yl)ureido)methyl)-N-methyl-2-(piperazin-1-yl)benzamide], the figures for the IC50 (at ALPK1; in assay [1]) were 30 nM and 4440 nM, respectively.

On to `Cc1ccc(C(C)(C)c2csc(NC(=O)NCc3ccc(N4CCNCC4)cc3)n2)cc1` [Example A075, 1-(4-(piperazin-1-yl)benzyl)-3-(4-(2-(p-tolyl)propan-2-yl)thiazol-2-yl)urea], for which the IC50 is 25 nM against ALPK1 and 267 nM in assay [1].

As to `C#CC(C)(c1ccc(Br)cc1)c1csc(NC(N)=O)n1` (stereo in doubt) [Example A164, (R)-1-(4-(2-(4-bromophenyl)but-3-yn-2-yl)thiazol-2-yl)urea], the results for the IC50 (at ALPK1; in assay [1]) were 17 nM and 590 nM, respectively.

Consider `COc1ccc(C(C)(C)c2csc(NC(=O)NCc3ccc(NCCN)nc3)n2)cc1` [Example A202, 1-((6-((2-aminoethyl)amino)pyridin-3-yl)methyl)-3-(4-(2-(4-methoxyphenyl)propan-2-yl)thiazol-2-yl)urea], for which the IC50 on ALPK1 came to 34 nM; in assay [1], 5710 nM.

On to `C#CC(C)(c1ccc(Cl)cc1)c1csc(NC(=O)NCc2ccc(N3CCNCC3)c(F)c2)n1` (stereo not shown) [Example A262, 1-(4-(2-(4-chlorophenyl)but-3-yn-2-yl)thiazol-2-yl)-3-(3-fluoro-4-(piperazin-1-yl)benzyl)urea], for which the IC50 on ALPK1 was 13 nM; in assay [1] it was 670 nM.

Consider `Cc1cc(N2CCNCC2)ccc1CNC(=O)Nc1nc(C(C)(C)c2ccc(Br)cc2)cs1` [Example A051, 1-(4-(2-(4-bromophenyl)propan-2-yl)thiazol-2-yl)-3-(2-methyl-4-(piperazin-1-yl)benzyl)urea], for which the concentration for half-maximal inhibition (IC50) at ALPK1 came out at 125 nM; in assay [1], 290 nM.

Regarding `C#C[C@](C)(c1ccc(Br)cc1)c1csc(NC(=O)N2CC(CO)C2)n1` [Example A166, (R)-N-(4-(2-(4-bromophenyl)but-3-yn-2-yl)thiazol-2-yl)-3-(hydroxymethyl)azetidine-1-carboxamide], the results for the IC50 (against ALPK1; in assay [1]) were 25 nM and 5710 nM, respectively.

Turning to `COc1ccc(C(C)(C)c2csc(NC(=O)NC3CCCC(O)C3)n2)cc1` (stereo not shown) [Example A123, 1-(3-hydroxycyclohexyl)-3-(4-(2-(4-methoxyphenyl)propan-2-yl)thiazol-2-yl)urea], the IC50 on ALPK1 was 354 nM; in assay [1] it was 2400 nM.

As to `C#CC(C)(c1ccc(Cl)cc1)c1csc(NC(=O)N2CCC(CO)CC2)n1` (stereo not shown) [Example A264, N-(4-(2-(4-chlorophenyl)but-3-yn-2-yl)thiazol-2-yl)-4-(hydroxymethyl)piperidine-1-carboxamide], the IC50 was 1370 nM against ALPK1 and 2810 nM in assay [1].

As for `CC(C)(c1ccc(Br)cc1)c1csc(NC(=O)NCCCS(C)(=O)=O)n1` [Example A130, 1-(4-(2-(4-bromophenyl)propan-2-yl)thiazol-2-yl)-3-(3-(methylsulfonyl)propyl) urea], the values for the IC50 (on ALPK1; in assay [1]) were 293 nM and 1100 nM, respectively.

`COc1ccc(C(C)(C)c2csc(NC(=O)NCc3ccc(N4CCNCC4)c(F)c3)n2)cc1` [Example A054, 1-(3-fluoro-4-(piperazin-1-yl)benzyl)-3-(4-(2-(4-methoxyphenyl)propan-2-yl)thiazol-2-yl)urea]: the IC50 was determined as 30 nM at ALPK1 and 880 nM in assay [1].

As to `COc1ccc(C(C)(C)c2csc(NC(=O)NCc3cnc(N4CCC(N(C)C)C4)nc3)n2)cc1` (stereo not shown) [Example A012, 1-((2-(3-(dimethylamino)pyrrolidin-1-yl)pyrimidin-5-yl)methyl)-3-(4-(2-(4-methoxyphenyl)propan-2-yl)thiazol-2-yl)urea], the IC50 is 40 nM at ALPK1 and 2210 nM in assay [1].

`C#CC(C)(c1ccc(Cl)cc1)c1nc(NC(=O)NCCO)sc1F` (stereo not shown) [Example A279, 1-(4-(2-(4-chlorophenyl)but-3-yn-2-yl)-5-fluorothiazol-2-yl)-3-(2-hydroxyethyl)urea]: the values for the IC50 (at ALPK1; in assay [1]) were 222 nM and 4230 nM, respectively.

In the case of `C#CC(C)(c1ccc(Cl)cc1)c1csc(NC(=O)N2CCNCC2)n1` (stereo not shown) [Example A308, N-(4-(2-(4-chlorophenyl)but-3-yn-2-yl)thiazol-2-yl)piperazine-1-carboxamide], the IC50 at ALPK1 worked out at 1540 nM; in assay [1], 5330 nM.

For the compound `CC(NC(=O)Nc1nc(C(C)(C)c2ccc(Br)cc2)cs1)c1cc(F)c(N2CCNCC2)c(F)c1` (stereo not shown) [Example A003, 1-(4-(2-(4-bromophenyl)propan-2-yl)thiazol-2-yl)-3-(1-(3,5-difluoro-4-(piperazin-1-yl)phenyl)ethyl)urea], the values for the IC50 (at ALPK1; in assay [1]) were 45 nM and 1200 nM, respectively.

For the compound `C#CC(C)(c1ccc(Br)cc1)c1csc(NC(=O)N2CC(c3ccc(N4CCNCC4)cc3)C2)n1` (stereo not shown) [Example A237, N-(4-(2-(4-bromophenyl)but-3-yn-2-yl)thiazol-2-yl)-3-(4-(piperazin-1-yl)phenyl)azetidine-1-carboxamide], the IC50 at ALPK1 was 7 nM; in assay [1], 610 nM.

Take `CC(C)(c1ccc(Br)cc1)c1csc(NC(=O)NCc2cnc(N3CCNCC3)cn2)n1` [Example A093, 1-(4-(2-(4-bromophenyl)propan-2-yl)thiazol-2-yl)-3-((5-(piperazin-1-yl)pyrazin-2-yl)methyl)urea]: the IC50 came to 9 nM against ALPK1 and 320 nM in assay [1].

Take `C#CC(C)(c1ccc(Br)cc1)c1csc(NC(N)=O)n1` (stereo in doubt) [Example A163, (S)-1-(4-(2-(4-bromophenyl)but-3-yn-2-yl)thiazol-2-yl)urea]: the results for the IC50 (on ALPK1; in assay [1]) were 4 nM and 350 nM, respectively.

Take `CC(C)(c1ccc(Br)cc1)c1csc(NC(=O)NCc2cnc(N3CCCNCC3)nc2)n1` [Example A091, 1-((2-(1,4-diazepan-1-yl)pyrimidin-5-yl)methyl)-3-(4-(2-(4-bromophenyl)propan-2-yl)thiazol-2-yl)urea]: the 50% inhibitory concentration (IC50) at ALPK1 stood at 135 nM; in assay [1] it was 3450 nM.

Take `COc1ccc(C(C)(C)c2csc(NC(=O)NO)n2)cc1` [Example A144, 1-hydroxy-3-(4-(2-(4-methoxyphenyl)propan-2-yl)thiazol-2-yl)urea]: the values for the IC50 (at ALPK1; in assay [1]) were 154 nM and 1750 nM, respectively.

Turning to `CC(C)(c1ccc(Br)cc1)c1csc(NC(=O)NCc2ccc(N3CCC(O)C3)cc2)n1` (stereo not shown) [Example A009, 1-(4-(2-(4-bromophenyl)propan-2-yl)thiazol-2-yl)-3-(4-(3-hydroxypyrrolidin-1-yl)benzyl)urea], the half-maximal inhibitory concentration (IC50) against ALPK1 was determined as 154 nM; in assay [1], 3150 nM.

Take `C#C[C@@](C)(c1ccc(Br)cc1)c1csc(NC(=O)N2CC(CO)C2)n1` [Example A167, (S)-N-(4-(2-(4-bromophenyl)but-3-yn-2-yl)thiazol-2-yl)-3-(hydroxymethyl)azetidine-1-carboxamide]: the IC50 at ALPK1 turned out to be 7 nM; in assay [1] it was 740 nM.

In the case of `CC1CN(c2ccc(CNC(=O)Nc3nc(C(C)(C)c4ccc(Br)cc4)cs3)cc2)CCN1` (stereo not shown) [Example A194, 1-(4-(2-(4-bromophenyl)propan-2-yl)thiazol-2-yl)-3-(4-(3-methylpiperazin-1-yl)benzyl)urea], the IC50 is 172 nM against ALPK1 and 3710 nM in assay [1].

On to `CC(C)(c1ccc(Br)c(F)c1)c1csc(NC(=O)NCc2cnc(N3CCNCC3)nc2)n1` [Example A196, 1-(4-(2-(4-bromo-3-fluorophenyl)propan-2-yl)thiazol-2-yl)-3-((2-(piperazin-1-yl)pyrimidin-5-yl)methyl)urea], for which the IC50 on ALPK1 amounted to 76 nM; in assay [1], 3340 nM.
